The text below walks through data of ChEMBL document CHEMBL4390696, “Orientation preferences of hairpin pyrrole-imidazole polyamides toward mCGG site” (Bioorg Med Chem, 2019).

Test [1] can be described thus: Binding affinity to 5'-ATmCGGAT-3' DNA (unknown origin) in reverse orientation assessed as change in melting temperature at 5 uM by UV-vis spectrophotometry.
Test [2] can be described thus: Binding affinity to 5'-ATGGmCAT-3' DNA (unknown origin) in reverse orientation assessed as change in melting temperature at 5 uM by UV-vis spectrophotometry.
Test [3] is described as follows: Orientation preference, ratio of change in melting temperature of forward binding site of 5'-ATmCGGAT-3' DNA (unknown origin) to sum of change in melting temperature of forward binding site and change in melting temperature of reverse binding site for 5'-ATmCGGAT-3' DNA (unknown origin).
A short description of test [4]: Binding affinity to 5'-ATmCGGAT-3' DNA (unknown origin) assessed as association constant incubated for 180 secs by SPR analysis.
A short description of test [5]: Binding affinity to 5'-ATCGGAT-3' DNA (unknown origin) assessed as association constant incubated for 180 secs by SPR analysis. In general terms: In SPR one partner is held on a chip, and binding of the other changes the refractive index at the surface.
A short description of test [6]: Binding affinity to 5'-ATmCGGAT-3' DNA (unknown origin) assessed as dissociation rate constant incubated for 180 secs by SPR analysis.
The nature of test [7]: Binding affinity to 5'-ATCGGAT-3' DNA (unknown origin) assessed as dissociation rate constant incubated for 180 secs by SPR analysis.
Test [8] is described as follows: Binding preference index, ratio of Kd for 5'-ATmCGGAT-3' DNA (unknown origin) to Kd for 5'-ATCGGAT-3' DNA (unknown origin).
The nature of test [9]: Binding affinity to 5'-ATmCGGAT-3' DNA (unknown origin) assessed as dissociation constant incubated for 180 secs by SPR analysis.
A short description of test [10]: Binding affinity to 5'-ATCGGAT-3' DNA (unknown origin) assessed as dissociation constant incubated for 180 secs by SPR analysis.
Test [11] is described as follows: Binding affinity to mCGG containing DNA assessed as inhibition of mouse TET1 catalytic domain binding to methylated 18 bp DNAs assessed as reduction in TET1-methylated DNA complex formation incubated for 30 mins by electrophoretic mobility shift assay. Background: A gel shift assay detects complexes by their altered migration in electrophoresis.
A short description of test [12]: Binding affinity to 5'-ATmCGGAT-3' DNA (unknown origin) in forward orientation assessed as change in melting temperature at 5 uM by UV-vis spectrophotometry.
A short description of test [13]: Binding affinity to 5'-ATGGmCAT-3' DNA (unknown origin) in forward orientation assessed as change in melting temperature at 5 uM by UV-vis spectrophotometry.
The nature of test [14]: Orientation preference, ratio of change in melting temperature of forward binding site of 5'-ATGGmCAT-3' DNA (unknown origin) to sum of change in melting temperature of forward binding site and change in melting temperature of reverse binding site for 5'-ATGGmCAT-3' DNA (unknown origin).

As to `CC(=O)Nc1cc(C(=O)Nc2cc(C(=O)Nc3cn(C)c(C(=O)Nc4cc(C(=O)NCCCC(=O)Nc5cc(C(=O)NCCC(=O)Nc6cn(C)c(C(=O)Nc7cn(C)c(C(=O)NCCC(=O)NCCCN(C)C)n7)n6)n(C)c5)n(C)c4)n3)n(C)c2)n(C)c1`, the figures for the thermal shift (ΔTm) in [1] and in [2] were 5.9 °C and 14.8 °C, respectively. The results for the Ratio in test [3] and in test [8] were 0.29 and 2.2, respectively. Also, the Ka in test [4] amounted to 5.1 ×10⁵ /M/s; in test [5] it was 5.2 ×10⁵ /M/s. For the same compound, the “Dissociation rate constant (koff)” value is given as 2.3 ×10⁻² /s in [6] and 1.1 ×10⁻² /s in test [7]. Moreover, the results for the Kd in test [9] and in [10] were 0.046 µM and 0.021 µM, respectively.
As for `CC(=O)Nc1cc(C(=O)NCCC(=O)Nc2cn(C)c(C(=O)Nc3cc(C(=O)NCCCC(=O)Nc4cc(C(=O)Nc5cc(C(=O)Nc6cn(C)c(C(=O)Nc7cn(C)c(C(=O)NCCC(=O)NCCCN(C)C)n7)n6)n(C)c5)n(C)c4)n(C)c3)n2)n(C)c1`, the results for the ΔTm in test [1] and in test [2] were 3.3 °C and 13.1 °C, respectively. The results for the Ratio in test [3] and in test [8] were 0.2 and 0.9, respectively. The Ka in test [4] is 3.1 ×10⁴ /M/s; in [5], 3.6 ×10⁴ /M/s. In addition, the “Dissociation rate constant (koff)” value in test [6] is given as 1.5 ×10⁻² /s; in test [7] it was 1.9 ×10⁻² /s. The dissociation constant Kd in [9] is 0.48 µM; in test [10], 0.53 µM.
For `CC(=O)Nc1cc(C(=O)Nc2cn(C)c(C(=O)Nc3cc(C(=O)Nc4cc(C(=O)NCCCC(=O)Nc5cn(C)c(C(=O)Nc6cn(C)c(C(=O)Nc7cc(C(=O)Nc8cc(C(=O)NCCC(=O)NCCCN(C)C)n(C)c8)n(C)c7)n6)n5)n(C)c4)n(C)c3)n2)n(C)c1`, the Ka is 4.3 ×10³ /M/s in [4] and 1.2 ×10⁴ /M/s in test [5]. For the same compound, the entries for the “Dissociation rate constant (koff)” value in test [6] and in test [7] were 2.6 ×10⁻⁴ /s and 5.9 ×10⁻⁴ /s, respectively. Further, the Ratio amounted to 1.3 in test [8] and 0.94 in test [14]. Moreover, the IC50 entry in [11] is “Not Active”. For the same compound, the ΔTm in test [12] worked out at 1.4 °C; in test [13] it was 21.5 °C. Also, the Kd is 0.061 µM in test [9] and 0.048 µM in test [10].
Take `CC(=O)Nc1cc(C(=O)NCCC(=O)Nc2cn(C)c(C(=O)Nc3cc(C(=O)NCCCC(=O)Nc4cc(C(=O)NCCC(=O)Nc5cn(C)c(C(=O)Nc6cn(C)c(C(=O)NCCC(=O)NCCCN(C)C)n6)n5)n(C)c4)n(C)c3)n2)n(C)c1`: the ΔTm in [1] was determined as 11.8 °C; in test [2], 16.2 °C. The results for the Ratio in [3] and in [8] were 0.42 and 0.9, respectively. The Ka in [4] is 7.4 ×10⁶ /M/s; in [5], 9 ×10⁶ /M/s. Further, the “Dissociation rate constant (koff)” value in test [6] was 6.6 ×10⁻² /s; in test [7], 8.9 ×10⁻² /s. The results for the Kd in test [9] and in test [10] were 0.0089 µM and 0.0098 µM, respectively.
As to `CC(=O)Nc1cc(C(=O)Nc2cn(C)c(C(=O)Nc3cc(C(=O)Nc4cc(C(=O)NCCCC(=O)Nc5cn(C)c(C(=O)Nc6cn(C)c(C(=O)NCCC(=O)Nc7cc(C(=O)NCCC(=O)NCCCN(C)C)n(C)c7)n6)n5)n(C)c4)n(C)c3)n2)n(C)c1`, the Ka in test [4] is 1.2 ×10⁶ /M/s; in test [5], 9.7 ×10⁵ /M/s. The “Dissociation rate constant (koff)” value turned out to be 1.6 ×10⁻¹ /s in [6] and 1.5 ×10⁻¹ /s in test [7]. In addition, the Ratio is 0.9 in [8] and 0.59 in test [14]. Moreover, the ΔTm came out at 7.6 °C in [12] and 10.9 °C in [13]. In addition, the results for the Kd in test [9] and in [10] were 0.13 µM and 0.15 µM, respectively.
With `CC(=O)Nc1cc(C(=O)Nc2cn(C)c(C(=O)NCCC(=O)Nc3cc(C(=O)NCC[C@H](N)C(=O)Nc4cn(C)c(C(=O)Nc5cn(C)c(C(=O)NCCC(=O)Nc6cc(C(=O)NCCC(=O)NCCCN(C)C)n(C)c6)n5)n4)n(C)c3)n2)n(C)c1`, the ΔTm came to 20.8 °C in test [1] and 13.3 °C in test [2]. For the same compound, the Ratio in [3] was determined as 0.39; in [8] it was 1.1. Moreover, the Ka in test [4] turned out to be 2.5 ×10⁶ /M/s; in test [5], 2.4 ×10⁶ /M/s. Further, the results for the “Dissociation rate constant (koff)” value in test [6] and in [7] were 5.8 ×10⁻³ /s and 8.6 ×10⁻³ /s, respectively. For the same compound, the IC50 in test [11] (read-out: IC50) stood at 0.12 µM. Also, the Kd in test [9] came out at 0.0023 µM; in [10], 0.0036 µM.
With `CC(=O)Nc1cc(C(=O)Nc2cc(C(=O)Nc3cn(C)c(C(=O)Nc4cc(C(=O)NCCCC(=O)Nc5cc(C(=O)Nc6cc(C(=O)Nc7cn(C)c(C(=O)Nc8cn(C)c(C(=O)NCCC(=O)NCCCN(C)C)n8)n7)n(C)c6)n(C)c5)n(C)c4)n3)n(C)c2)n(C)c1`, the ΔTm in test [1] was found to be 1.6 °C; in test [2], 6.7 °C. Also, in test [3], the Ratio was 0.19. Moreover, the IC50 in test [11] (read-out: IC50) turned out to be 2.56 µM.
For the compound `CC(=O)Nc1cc(C(=O)Nc2cn(C)c(C(=O)NCCC(=O)Nc3cc(C(=O)NCCCC(=O)Nc4cn(C)c(C(=O)Nc5cn(C)c(C(=O)Nc6cc(C(=O)Nc7cc(C(=O)NCCC(=O)NCCCN(C)C)n(C)c7)n(C)c6)n5)n4)n(C)c3)n2)n(C)c1`, the Ka in test [4] amounted to 3.2 ×10⁵ /M/s; in test [5] it was 8.2 ×10⁵ /M/s. Besides, the “Dissociation rate constant (koff)” value amounted to 2 ×10⁻¹ /s in test [6] and 1.2 ×10⁻¹ /s in [7]. Besides, the figures for the Ratio in test [8] and in [14] were 4.1 and 0.54, respectively. Besides, the ΔTm amounted to 10.8 °C in test [12] and 12.5 °C in test [13]. For the same compound, the Kd in test [9] is 0.61 µM; in test [10], 0.15 µM.
`CC(=O)Nc1cc(C(=O)Nc2cn(C)c(C(=O)NCCC(=O)Nc3cc(C(=O)NCCCC(=O)Nc4cn(C)c(C(=O)Nc5cn(C)c(C(=O)NCCC(=O)Nc6cc(C(=O)NCCC(=O)NCCCN(C)C)n(C)c6)n5)n4)n(C)c3)n2)n(C)c1`: the figures for the ΔTm in test [1] and in [2] were 18.1 °C and 8.6 °C, respectively. In addition, the Ratio in [3] turned out to be 0.32; in test [8] it was 1.6. The Ka was 1.1 ×10⁶ /M/s in test [4] and 1.4 ×10⁶ /M/s in test [5]. Also, the entries for the “Dissociation rate constant (koff)” value in test [6] and in test [7] were 3.2 ×10⁻³ /s and 2.4 ×10⁻³ /s, respectively. Also, the Kd is 0.0028 µM in [9] and 0.0017 µM in test [10].
Take `CC(=O)Nc1cc(C(=O)NCCC(=O)Nc2cn(C)c(C(=O)Nc3cc(C(=O)NCC[C@@H](N)C(=O)Nc4cc(C(=O)NCCC(=O)Nc5cn(C)c(C(=O)Nc6cn(C)c(C(=O)NCCC(=O)NCCCN(C)C)n6)n5)n(C)c4)n(C)c3)n2)n(C)c1`: the thermal shift (ΔTm) in test [1] came to 16 °C; in test [2], 17.9 °C. In addition, the Ratio in test [3] worked out at 0.47; in [8], 1. In addition, the values for the Ka in test [4] and in [5] were 3.2 ×10⁶ /M/s and 4.2 ×10⁶ /M/s, respectively. Besides, the “Dissociation rate constant (koff)” value in [6] was 5.3 ×10⁻³ /s; in [7], 7.2 ×10⁻³ /s. For the same compound, the IC50 in test [11] (read-out: IC50) was determined as 0.17 µM. Besides, the Kd in test [9] and in test [10] was 0.0017 µM in each case.

In general, ΔTm refers to the shift of the melting midpoint relative to a reference. As a reminder, the Kd is the concentration at which binding is half-saturated. Usually IC50 stands for the concentration that gives 50% inhibition.
